In article PMC10671431, “New Derivatives of N-Hydroxybutanamide: Preparation, MMP Inhibition, Cytotoxicity, and Antitumor Activity” (International Journal of Molecular Sciences, 2023):

Key:
B16 melanoma [1] = assay: Antimetastatic activity in vivo, lung metastases; set-up: species or system mouse; details: lungs, B16 melanoma, BDF1 mice, doses as in Table 5; for Number of Animals without Metastases: of 6 animals in the group
Procedure: (§1) Antitumor activity in vivo. The B16 mouse melanoma was used as a tumor model. The B16 melanoma tumor strain was induced in male BDF1 mice by subcutaneous inoculation of 0.2–0.5 mL of a suspension of tumor tissue in medium 199 at intervals of 12–16 days. For the experiments, BDF1 mice were inoculated with 0.3 mL of a suspension of tumor tissue diluted in a 0.9% NaCl solution at a ratio of 1:5 subcutaneously on the right side.
(§2) Compound 4 was dissolved in a 0.9% NaCl solution with 1% DMSO. […] Control animals were injected intraperitoneally with 1% DMSO in saline (0.9% NaCl) in the same volumes as the test compounds.
And MNMcont. are the mean number of metastases in the experimental and control groups, respectively.

B16 melanoma [2] = assay: Antitumor activity in vivo, tumor growth; set-up: species or system mouse; details: BDF1 mice, i.p., CP 100 mg/kg days 2, 7, cPt 4 mg/kg days 2–9, 4 300 mg/kg days 2–9
Procedure: as §1, §2
Tumor growth was monitored on days 0, 6, 8, 10, 13, 15, 17, and 20 by measuring the tumor size with a digital caliper. The mean tumor diameter was calculated using the formula:D = 3√a × b × c,(2) where a, b, and c are mutually perpendicular tumor diameters.

HeLa = assay: Cytotoxicity, MTT test; format: cell-based, human; details: 72 h of exposure
Procedure: (§3) Cell culture. A-172 (human glioblastoma cells), HepG2 (human hepatocellular carcinoma cells), M-HeLa (human cervical adenocarcinoma cells, M subclone), Vero (African green monkey kidney epithelial cells), and FetMSC (human embryonic mesenchymal stem cells) were purchased from the Russian Collection of Cell Cultures of Vertebrates (Institute of Cytology RAS, St. Petersburg, Russia). The U-251 MG cell line (human glioblastoma-astrocytoma) was purchased from the European Collection of Authenticated Cell Cultures (Salisbury, UK). All cells were grown at 37 °C in an atmosphere of 5% CO2. A-172 and Vero cells were cultured in DMEM medium (PanEco, Moscow, Russia). HepG2, HeLa, and U-251 MG cells were cultured in EMEM medium (PanEco). FetMSC cells were cultured in F12/DMEM medium (PanEco). All incubation media were supplemented with 10% fetal calf serum (BioWest, Nuaillé, France), 50 U/mL penicillin, and […] streptomycin (PanEco). Additionally, media for HeLa, HepG2, and U-251 MG cells were supplemented with 2 mM glutamine (PanEco) and 1% essential amino acids (PanEco), media for A-172 and Vero cells were supplemented with 4 mM glutamine, and the medium for FetMSC cells was supplemented with 3 mM glutamine. The medium for U-251 MG cells was additionally supplemented with 1 mM sodium pyruvate (PanEco).
(§4) Cytotoxicity studies. The cytotoxicity of the compounds was assessed using the MTT test. Cells were seeded into 96-well plates at varying concentrations of 5 × 10^4 cells/mL (A-172, Vero and HeLa), 7 × 10^4 cells/mL (HepG2 and U-251 MG), and 10 × 10^4 cells/mL (FetMSC). The studied compounds were added to the incubation medium 24 h after seeding at concentrations ranging from 7.8 μM to 500 μM. All compounds were dissolved in DMSO and diluted with the incubation medium to their final concentrations just before use. The incubation medium in wells was aspirated and replaced with medium containing the studied compounds. The final concentration of DMSO in all samples was 0.1%. Control samples were treated with 0.1% DMSO. After 72 h of exposure, 3-(4,5-dimethylthiazol-2-yl)-2,5-diphenyl-2H-tetrazolium bromide (MTT) (Dia-M, Moscow, Russia) was added to the incubation medium at a concentration of 0.5 mg/mL. The resulting MTT-formazan crystals were dissolved in DMSO. The optical density was measured at 570 nm with a background wavelength of 620 nm using a Spark 10M plate reader. IC50 values were determined using a median effect analysis from the dose–effect relationships.

HepG2 = assay: Cytotoxicity, MTT test; format: cell-based, human
Procedure: as §3, §4

A-172 = assay: Cytotoxicity, MTT test; format: cell-based, human
Procedure: as §3, §4

Vero = assay: Cytotoxicity, MTT test; format: cell-based, African green monkey; details: 72 h of exposure
Procedure: as §3, §4

FetMSC = assay: Cytotoxicity, MTT test; format: cell-based, human; details: Homo sapiens; 72 h of exposure, MTT
Procedure: as §3, §4

[3] = Cytotoxicity, MTT test, statements on all cell lines studied; format: cell-based; details: human, African green monkey, 72 h of exposure, summary over cell lines, read-out: cytotoxicity IC50, cells in general
Procedure: as §3, §4

U-251 MG = assay: Cytotoxicity, MTT test; format: cell-based; details: Homo sapiens, 72 h of exposure
Procedure: as §3, §4

MMP-2 = target: T1, MMP-2 (Homo sapiens, UniProt P08253); assay: MMP activity assay, fluorogenic substrate (MMP Inhibitor Profiling Kit); format: biochemical; details: read-out: MMP-inhibiting activity IC50, MMP-2
T1 construct: the BML- prefix points to Enzo Life Sciences, own knowledge BML-AK308
Procedure: (§5) Determination of MMP activity. A fluorescently labeled substrate probe containing a fluorescent label and a fluorescence quencher, was utilized for this study. […] Enzyme activity was assessed using the MMP Inhibitor Profiling Kit (Product # BML-AK308, New York, NY, USA) according to the manufacturer’s recommendations. The nonspecific inhibitor NNGH was used as a positive control. The fluorescence of the fluorogenic substrate OmniMMP^TM RED was measured at wavelengths Ex/Em = 545/576 nm using a Spark 10M multimode plate reader (Tecan, Zurich, Switzerland). Reaction rates were expressed in relative fluorescence units (RFUs) per minute. The activity of MMPs in the presence of the studied compounds was determined as follows:Activity, % = (Vinh/Vcont) × 100,(1) where V is the initial reaction rate (RFUs/min) in the presence (Vinh) and absence (Vcont) of the studied compounds.
(§6) All tested compounds were dissolved in DMSO. The final concentration of DMSO in all samples was 0.1%. Control samples were treated with 0.1% DMSO.

MMP-3 = target: T2, MMP-3 (Homo sapiens, UniProt P08254); assay: as above; format: biochemical; details: read-out: MMP-inhibiting activity IC50, MMP-3
T2 construct: the BML- prefix points to Enzo Life Sciences, own knowledge BML-AK308
Procedure: as §5, §6

MMP-9 = target: T3, MMP-9 (Homo sapiens, UniProt P14780); assay: as above; format: biochemical; details: read-out: MMP-inhibiting activity IC50, MMP-9
T3 construct: the BML- prefix points to Enzo Life Sciences, own knowledge BML-AK308
Procedure: as §5, §6

MMP-14 = target: T4, MMP-14 (Homo sapiens, UniProt P50281); assay: as above; format: biochemical; details: read-out: MMP-inhibiting activity IC50, MMP-14
T4 construct: the BML- prefix points to Enzo Life Sciences, own knowledge BML-AK308
Procedure: as §5, §6

[4] = Homo sapiens, HepG2, 72 h of exposure
[5] = Homo sapiens, A 172, 72 h of exposure

T2 sequence (P08254 100-272 limits assumed): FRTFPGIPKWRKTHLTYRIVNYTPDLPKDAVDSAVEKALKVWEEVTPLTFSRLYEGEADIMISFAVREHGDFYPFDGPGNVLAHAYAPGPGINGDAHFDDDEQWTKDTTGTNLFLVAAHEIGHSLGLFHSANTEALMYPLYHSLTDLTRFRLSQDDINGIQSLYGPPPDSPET
T1 sequence (P08253 110-446 limits assumed): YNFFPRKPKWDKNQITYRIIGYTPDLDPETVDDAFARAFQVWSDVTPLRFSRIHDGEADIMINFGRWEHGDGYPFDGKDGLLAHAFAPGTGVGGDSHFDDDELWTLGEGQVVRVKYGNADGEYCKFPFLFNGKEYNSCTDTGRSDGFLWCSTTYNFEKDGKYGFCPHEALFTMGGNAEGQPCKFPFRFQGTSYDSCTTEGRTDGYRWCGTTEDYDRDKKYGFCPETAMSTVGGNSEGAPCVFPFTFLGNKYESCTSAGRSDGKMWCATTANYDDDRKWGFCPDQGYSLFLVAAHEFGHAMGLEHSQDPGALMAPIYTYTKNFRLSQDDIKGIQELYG
T3 sequence (P14780 107-444 limits assumed): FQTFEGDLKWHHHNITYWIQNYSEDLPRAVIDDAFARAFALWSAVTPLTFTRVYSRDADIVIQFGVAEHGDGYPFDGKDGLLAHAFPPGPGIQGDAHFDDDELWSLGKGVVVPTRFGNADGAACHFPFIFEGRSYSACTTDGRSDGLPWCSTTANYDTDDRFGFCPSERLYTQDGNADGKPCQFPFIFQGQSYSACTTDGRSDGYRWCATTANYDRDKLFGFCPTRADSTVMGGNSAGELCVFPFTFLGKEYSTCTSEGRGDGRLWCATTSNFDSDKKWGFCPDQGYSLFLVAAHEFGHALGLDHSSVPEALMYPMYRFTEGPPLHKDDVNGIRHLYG

| SMILES | IC50 (MMP-2) [µM] | IC50 (MMP-3) [µM] | IC50 (MMP-9) [µM] | IC50 (MMP-14) [µM] | % Inhibition of Metastases (B16 melanoma [1]) [%] | Mean Number of Metastases per Mouse (B16 melanoma [1]) | Metastasis Rate, % (B16 melanoma [1]) [%] | Number of Animals without Metastases (B16 melanoma [1]) | Tumor Growth Inhibition, % Day 10 (B16 melanoma [2]) [%] | Tumor Growth Inhibition, % Day 13 (B16 melanoma [2]) [%] | Tumor Growth Inhibition, % Day 15 (B16 melanoma [2]) [%] | Tumor Growth Inhibition, % Day 17 (B16 melanoma [2]) [%] | Tumor Growth Inhibition, % Day 20 (B16 melanoma [2]) [%] | IC50 (HeLa; Homo sapiens, HeLa) [µM] | IC50 (HepG2; [4]) [µM] | IC50 (A-172; [5]) [µM] | IC50 (FetMSC) [µM] | IC50 at 72 h [3] [µM] | IC50 (U-251 MG) [µM] | IC50 (Vero; Chlorocebus sabaeus, Vero) [µM] | further results |
| --- | --- | --- | --- | --- | --- | --- | --- | --- | --- | --- | --- | --- | --- | --- | --- | --- | --- | --- | --- | --- | --- |
| O=P1(N(CCCl)CCCl)NCCCO1 (stereo not shown) [CP, cyclophosphamide] | – | – | – | – | 39.3 | 7.1 ± 2.2 | 100 | 0 | 52.94 | 38.10 | 43.20 | 27.43 | 14.02 | – | – | – | – | – | – | – | – |
| N.N.[Cl][Pt][Cl] [Cisplatin, cisplatin] | – | – | – | – | 71.9 | 3.3 ± 2.4 | 83.3 | 1 | 76.47 | 61.11 | 52.07 | 32.00 | 9.54 | – | – | – | – | – | – | – | IC50 (HeLa): 11.7 ± 2.41 µM; IC50 (HepG2; 72 h of exposure): 13.2 ± 1.62 µM; IC50 (A-172; 72 h of exposure): 8.46 ± 0.92 µM; IC50 (Vero): 10.7 ± 1.45 µM |
| O=C(CCC(=O)NNC(=O)c1ccccc1[N+](=O)[O-])NO [Compound 1, N-hydroxy-4-[2-(2-nitrobenzoyl)hydrazinyl]-4-oxobutanamide] | > 10 | > 10 | > 10 | > 10 | – | – | – | – | – | – | – | – | – | 377 ± 25.2 | 393 ± 26.2 | > 500 | > 500 | > 100 | > 500 | > 500 | – |

Continued, in another order:

| IC50 (MMP-2) [µM] | IC50 (MMP-3) [µM] | IC50 (MMP-9) [µM] | IC50 (MMP-14) [µM] | SMILES | % Inhibition of Metastases (B16 melanoma [1]) [%] | Mean Number of Metastases per Mouse (B16 melanoma [1]) | Metastasis Rate, % (B16 melanoma [1]) [%] | Number of Animals without Metastases (B16 melanoma [1]) | Tumor Growth Inhibition, % Day 10 (B16 melanoma [2]) [%] | Tumor Growth Inhibition, % Day 13 (B16 melanoma [2]) [%] | Tumor Growth Inhibition, % Day 15 (B16 melanoma [2]) [%] | Tumor Growth Inhibition, % Day 17 (B16 melanoma [2]) [%] | Tumor Growth Inhibition, % Day 20 (B16 melanoma [2]) [%] | IC50 (HeLa; Homo sapiens, HeLa) [µM] | IC50 (HepG2; [4]) [µM] | IC50 (A-172; [5]) [µM] | IC50 (FetMSC) [µM] | IC50 at 72 h [3] [µM] | IC50 (U-251 MG) [µM] | IC50 (Vero; Chlorocebus sabaeus, Vero) [µM] | further results |
| --- | --- | --- | --- | --- | --- | --- | --- | --- | --- | --- | --- | --- | --- | --- | --- | --- | --- | --- | --- | --- | --- |
| > 10 | > 10 | > 10 | > 10 | O=C(CCC(=O)NNC(=O)c1cccc([N+](=O)[O-])c1)NO [Compound 2, N-hydroxy-4-[2-(3-nitrobenzoyl)hydrazinyl]-4-oxobutanamide] | – | – | – | – | – | – | – | – | – | 185 ± 15.3 | 213 ± 15.3 | > 500 | > 500 | > 100 | > 500 | > 500 | – |
| > 10 | > 10 | > 10 | > 10 | O=C(CCC(=O)NNC(=O)c1ccc([N+](=O)[O-])cc1)NO [Compound 3, N-hydroxy-4-[2-(4-nitrobenzoyl)hydrazinyl]-4-oxobutanamide] | – | – | – | – | – | – | – | – | – | 237 ± 14.2 | 252 ± 15.8 | > 500 | > 500 | > 100 | > 500 | > 500 | – |
